Values of other authors in patent publication US20110071026A1, “LOW VISCOSITY, AQUEOUS […] CONCENTRATES” (priority 2009, published 2011).

Conditions: at 25° C.; acid form

In the case of `O=C(O)CNCP(=O)(O)O` [glyphosate, N-(phosphonomethyl)glycine], the solubility in water is given as “about 12 g/L”.
